Literature values in patent US20050227998A1, “Compositions and methods of decreasing nicotine withdrawal” (priority 2004, published 2005).

Tested on: monkeys

In the case of `CN1[C@@H]2C[C@@H](OC(=O)[C@H](CO)c3ccccc3)C[C@H]1[C@@H]1O[C@@H]12` [scopolamine, Scopolamine], the smoking patterns is given as “decreased”.
